Reference: PubChem BioAssay AID1259411 (Chemical Carcinogenesis Research Information System (CCRIS), 2018)
Active and inactive are the calls of the source. No rule for the calls is given here.

System: rodent carcinogenicity bioassays, tumor incidence
Assay: CCRIS carcinogenicity studies
How it was run: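 NCI-built, expert-reviewed records of carcinogenicity and related test outcomes (mutagenicity, tumor promotion/inhibition) compiled from published and report sources, historical span 1985-2011, not updated.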

Q: For `CC(=O)OC[C@H]1O[C@H](O[C@]2(COC(C)=O)O[C@H](COC(=O)C(C)C)[C@@H](OC(=O)C(C)C)[C@@H]2OC(=O)C(C)C)[C@H](OC(=O)C(C)C)[C@@H](OC(=O)C(C)C)[C@@H]1OC(=O)C(C)C`, which carcinogen call (Species: MONKEY, Strain/Sex: CYNOMOLGUS/FEMALE, Route: GAVAGE, Dose: 0, 500, 1450, 2400 MG/KG BW 1X/D FOR 52 WK (STUDY DURATION: 52 WK), Dose: 0, 500, 1450, 2400 MG/KG BW 1X/D FOR 52 WK (STUDY DURATION: 52 WK)) is on record?
A: inactive; negative

Q: What about the carcinogen call (Species: MONKEY, Strain/Sex: CYNOMOLGUS/MALE, Route: GAVAGE, Dose: 0, 500, 1450, 2400 MG/KG BW 1X/D FOR 52 WK (STUDY DURATION: 52 WK), Dose: 0, 500, 1450, 2400 MG/KG BW 1X/D FOR 52 WK (STUDY DURATION: 52 WK)) of the same compound?
A: inactive; negative

Q: What about the carcinogen call (Species: MOUSE, Strain/Sex: B6C3F1/FEMALE, Route: ORAL, Dose: 0, 1.25, 2.5, 5 G/KG BW IN DIET FOR 2 YR (STUDY DURATION: 2 YR), Dose: 0, 1.25, 2.5, 5 G/KG BW IN DIET FOR 2 YR (STUDY DURATION: 2 YR)) of the same compound?
A: inactive; negative

Q: And the carcinogen call (Species: MOUSE, Strain/Sex: B6C3F1/MALE, Route: ORAL, Dose: 0, 1.25, 2.5, 5 G/KG BW IN DIET FOR 2 YR (STUDY DURATION: 2 YR), Dose: 0, 1.25, 2.5, 5 G/KG BW IN DIET FOR 2 YR (STUDY DURATION: 2 YR))?
A: inactive; negative

Q: What about the carcinogen call (Species: RAT, Strain/Sex: F344/FEMALE, Route: ORAL, Dose: 0 0.5, 1, 2 G/KG BE IN DIET FOR 2 YR (STUDY DURATION: 2 YR), Dose: 0 0.5, 1, 2 G/KG BE IN DIET FOR 2 YR (STUDY DURATION: 2 YR)) of the same compound?
A: inactive; negative

Q: And the carcinogen call (Species: RAT, Strain/Sex: F344/MALE, Route: ORAL, Dose: 0, 0.5, 1, 2 G/KG BW IN DIET FOR 2 YR (STUDY DURATION: 2 YR), Dose: 0, 0.5, 1, 2 G/KG BW IN DIET FOR 2 YR (STUDY DURATION: 2 YR))?
A: inactive; negative

Q: Which carcinogen call (Species: RAT, Strain/Sex: F344/MALE (30-33/GROUP), FEMALE (28-32/GROUP), Route: ORAL, Dose: 0, 20, 40 PPM IN DIET FOR 85 WK (STUDY DURATION: 85 WK), Dose: 0, 20, 40 PPM IN DIET FOR 85 WK (STUDY DURATION: 85 WK), Tumor Site: Type of Lesion: LIVER: ADENOMA, HEPATOCELLULAR CARCINOMA, COLON: ADENOCARCINOMA, THYROID: FOLLICULAR CELL ADENOMA AND CARCINOMA, MONONUC, Tumor Site: Type of Lesion: LIVER: ADENOMA, HEPATOCELLULAR CARCINOMA, COLON: ADENOCARCINOMA, THYROID: FOLLICULAR CELL ADENOMA AND CARCINOMA, MONONUC) does the source give for `Nc1ccc(-n2c3ccccc3c3ccncc32)cc1` here?
A: active; positive

Q: Which carcinogen call (Species: MOUSE, Strain/Sex: B6C3F1/FEMALE, Route: INHALATION, Dose: 0, 500, 1000, 2000 PPM 6 HR/D 5 D/WK FOR 105 WK (STUDY DURATION: 105 WK), Dose: 0, 500, 1000, 2000 PPM 6 HR/D 5 D/WK FOR 105 WK (STUDY DURATION: 105 WK)) does the source give for `CC(C)C=O` here?
A: inactive; negative

Q: What about the carcinogen call (Species: MOUSE, Strain/Sex: B6C3F1/MALE, Route: INHALATION, Dose: 0, 500, 1000, 2000 PPM 6 HR/D 5 D/WK FOR 105 WK (STUDY DURATION: 105 WK), Dose: 0, 500, 1000, 2000 PPM 6 HR/D 5 D/WK FOR 105 WK (STUDY DURATION: 105 WK)) of the same compound?
A: inactive; negative

Q: What about the carcinogen call (Species: RAT, Strain/Sex: F344/FEMALE, Route: INHALATION, Dose: 0, 500, 1000, 2000 PPM 6 HR/D 5 D/WK FOR 105 WK (STUDY DURATION: 105 WK), Dose: 0, 500, 1000, 2000 PPM 6 HR/D 5 D/WK FOR 105 WK (STUDY DURATION: 105 WK)) of the same compound?
A: inactive; negative

Q: What about the carcinogen call (Species: RAT, Strain/Sex: F344/MALE, Route: INHALATION, Dose: 0, 500, 1000, 2000 PPM 6 HR/D 5 D/WK FOR 105 WK (STUDY DURATION: 105 WK), Dose: 0, 500, 1000, 2000 PPM 6 HR/D 5 D/WK FOR 105 WK (STUDY DURATION: 105 WK)) of the same compound?
A: inactive; negative

Q: `CCC(C)OC(=O)N1CCCCC1CCO` (centres undefined) was tested. Which carcinogen call (Species: MOUSE, Strain/Sex: CD-1/FEMALE, Route: DERMAL, Dose: 0, 50, 100, 200 MG/KG BW FOR 78 WK (STUDY DURATION: 78 WK), Dose: 0, 50, 100, 200 MG/KG BW FOR 78 WK (STUDY DURATION: 78 WK)) did it give?
A: inactive; negative

Q: And the carcinogen call (Species: MOUSE, Strain/Sex: CD-1/MALE, Route: DERMAL, Dose: 0, 50, 100, 200 MG/KG BW FOR 78 WK (STUDY DURATION: 78 WK), Dose: 0, 50, 100, 200 MG/KG BW FOR 78 WK (STUDY DURATION: 78 WK))?
A: inactive; negative

Q: And the carcinogen call (Species: RAT, Strain/Sex: SPRAGUE-DAWLEY/FEMALE, Route: DERMAL, Dose: 0, 50, 100, 200 MG/KG BW FOR 104 WK (STUDY DURATION: 104 WK), Dose: 0, 50, 100, 200 MG/KG BW FOR 104 WK (STUDY DURATION: 104 WK))?
A: inactive; negative

Q: What about the carcinogen call (Species: RAT, Strain/Sex: SPRAGUE-DAWLEY/MALE, Route: DERMAL, Dose: 0, 50, 100, 200 MG/KG BW FOR 104 WK (STUDY DURATION: 104 WK), Dose: 0, 50, 100, 200 MG/KG BW FOR 104 WK (STUDY DURATION: 104 WK)) of the same compound?
A: inactive; negative

Q: What does the source list for `CCCN(CCC)c1c([N+](=O)[O-])cc(C(F)(F)F)cc1[N+](=O)[O-]`?
A: carcinogen call (Species: MOUSE, Strain/Sex: B6C3F1/FEMALE, Route: ORAL, Dose: 0, 563, 2250, 4500 PPM IN DIET FOR 2 YR (STUDY DURATION: 2 YR), Dose: 0, 563, 2250, 4500 PPM IN DIET FOR 2 YR (STUDY DURATION: 2 YR)): inactive; negative; carcinogen call (Species: MOUSE, Strain/Sex: B6C3F1/FEMALE, Route: ORAL, Dose: 0, 2740, 5192 PPM IN DIET, TWA, Dose: 0, 2740, 5192 PPM IN DIET, TWA, Tumor Site: Type of Lesion: LUNG: ALVEOLAR/BRONCHIOLAR ADENOMA OR CARCINOMA, LIVER: HEPATOCELLULAR ADENOMA OR CARCINOMA): active; positive; carcinogen call (Species: MOUSE, Strain/Sex: B6C3F1/MALE, Route: ORAL, Dose: 0, 563, 2250, 4500 PPM IN DIET FOR 2 YR (STUDY DURATION: 2 YR), Dose: 0, 563, 2250, 4500 PPM IN DIET FOR 2 YR (STUDY DURATION: 2 YR)): inactive; negative; carcinogen call (Species: MOUSE, Strain/Sex: B6C3F1/MALE, Route: ORAL, Dose: 0, 2000, 3744 PPM IN DIET, TWA, Dose: 0, 2000, 3744 PPM IN DIET, TWA): inactive; negative; carcinogen call (Species: MOUSE, Strain/Sex: NMRI/FEMALE, Route: ORAL, Dose: 0, 50, 200, 800 MG/KG IN DIET FOR 104 WK (STUDY DURATION: 104 WK), Dose: 0, 50, 200, 800 MG/KG IN DIET FOR 104 WK (STUDY DURATION: 104 WK)): inactive; negative; carcinogen call (Species: MOUSE, Strain/Sex: NMRI/MALE, Route: ORAL, Dose: 0, 50, 200, 800 MG/KG IN DIET FOR 104 WK (STUDY DURATION: 104 WK), Dose: 0, 50, 200, 800 MG/KG IN DIET FOR 104 WK (STUDY DURATION: 104 WK)): inactive; negative; carcinogen call (Species: RAT, Strain/Sex: OSBORNE-MENDEL/FEMALE, Route: ORAL, Dose: 0, 4125, 7917 PPM IN DIET, TWA, Dose: 0, 4125, 7917 PPM IN DIET, TWA): inactive; negative; carcinogen call (Species: RAT, Strain/Sex: OSBORNE-MENDEL/MALE, Route: ORAL, Dose: 0, 4125, 8000 PPM IN DIET, TWA, Dose: 0, 4125, 8000 PPM IN DIET, TWA): inactive; negative; carcinogen call (Species: RAT, Strain/Sex: WISTAR/FEMALE, Route: ORAL, Dose: 0, 200, 800, 3200 MG/KG IN DIET FOR 122 WK (STUDY DURATION: 122 WK), Dose: 0, 200, 800, 3200 MG/KG IN DIET FOR 122 WK (STUDY DURATION: 122 WK)): inactive; negative; carcinogen call (Species: RAT, Strain/Sex: WISTAR/MALE, Route: ORAL, Dose: 0, 200, 800, 3200 MG/KG IN DIET FOR 122 WK (STUDY DURATION: WK), Dose: 0, 200, 800, 3200 MG/KG IN DIET FOR 122 WK (STUDY DURATION: WK)): inactive; negative

Q: For `CC(C)OC(=O)Nc1cccc(Cl)c1`, which carcinogen call (Species: Mouse, Strain/Sex: CD-1/Female (50/group), Route: Oral, Dose: 0, 100, 500, 1,000 mg/kg/day in diet for 18 mo, Dose: 0, 100, 500, 1,000 mg/kg/day in diet for 18 mo) is on record?
A: inactive; negative (study details not given in source; purity 96.2%)

Q: And the carcinogen call (Species: Mouse, Strain/Sex: CD-1/Male (50/group), Route: Oral, Dose: 0, 100, 500, 1,000 mg/kg/day in diet for 18 mo, Dose: 0, 100, 500, 1,000 mg/kg/day in diet for 18 mo)?
A: inactive; negative (study details not given in source; purity 96.2%)

Q: What about the carcinogen call (Species: Rat, Strain/Sex: Sprague-Dawley/Female (50/group), Route: Oral, Dose: 0, 30, 100, 500, 1,000 mg/kg/day in diet for 24 mo, Dose: 0, 30, 100, 500, 1,000 mg/kg/day in diet for 24 mo) of the same compound?
A: inactive; negative (study details not given in source; purity 96.2%)

Q: And the carcinogen call (Species: Rat, Strain/Sex: Sprague-Dawley/Male (50/group), Route: Oral, Dose: 0, 30, 100, 500, 1,000 mg/kg/day in diet for 24 mo, Dose: 0, 30, 100, 500, 1,000 mg/kg/day in diet for 24 mo, Tumor Site: Type of Lesion: Testis: Interstitial cell tumors (1, 4, 2, 4, 9; Significant at highest dose))?
A: active; positive (study details not given in source; purity 96.2%)
